Source: patent publication US7439415B2, “Population of Hoxb8 mutants and uses in identifying agents for treating repetitive behaviors” (priority 2001, dated 2008)
Where a name gives a salt, the structure may show the parent alone.

Tested on: Hoxb8 mutant animals
Test: Fluoxetine treatment of Hoxb8 mutant mice with excessive grooming (induced grooming assay / hair regrowth)
Format: in vivo, mouse
Conditions: 10 mg/kg/day via Alzet mini-osmotic pumps, thirty days of treatment

CNCCC(Oc1ccc(C(F)(F)F)cc1)c1ccccc1 (stereo not shown) [Flu, Fluoxetine-HCl]
hair regrowth / efficacy against excessive grooming behavior: exhibited signs of hair regrowth
